{"source": "paper PMC9020739", "about": "“Identification of a two-component regulatory system involved in antimicrobial peptide resistance in Streptococcus pneumoniae” (PLoS Pathogens, 2022)", "type_in_all_cases": "cell-based, Streptococcus pneumoniae", "key": {"[1]": {"tested_on": "BceA-GFP in S. pneumoniae R800", "assay": "BceA-GFP expression by fluorescence microscopy and Western blot", "settings": "bacitracin 0.5 μg/mL, 30 min, 37°C, fluorescence microscopy of individual cells", "procedure": "Cells were inoculated in C+Y medium and grown at 37°C, without agitation and in anaerobic conditions, until at OD550nm = 0.3. After centrifugation 5 min at 5,000 g, pellets were resuspended in 1/50th of initial volume in TE buffer (25 mM Tris-HCl pH = 7.5, EDTA 1 mM) with DNase/RNase 6 μg/mL and protease inhibitor CLAPA 1X (Chymostatin 1 μg/mL, Pepstatin 1 μg/mL, Leupeptin 1 μg/mL, Antipaïn 1 μg/mL, Aprotinin 4 μg/mL). Cells were lysed by sonication by using Sonifier 450 Branson device. 25 μg of crude extracts were mixed with Laemmli loading buffer and heated 10 min at 95°C. Samples were loaded onto an 12.5% SDS-PAGE and migration was performed in TG-SDS buffer (Tris-HCl 25 mM, Glycine 0.192 M, SDS 0.1% (v/v)). Proteins were transferred onto a PVDF membrane, previously activated by methanol 100%, in a transfer buffer (Tris-HCl 25 mM pH = 8, Glycine 0.192 M, methanol 20% (v/v), SDS 0.04% (v/v)). The membrane was washed with TBST (Tris-HCl 100 mM pH = 8, NaCl 150 mM, Tween 0.05%) and incubated 1 h with blocking buffer (BSA 5%, TBST). […]\nPneumococcal cells were grown at 37°C until OD550nm = 0.2 in C+Y medium. […] Images were analyzed using ImageJ (http://rsb.info.nih.gov/ij/) and the plugin MicrobeJ to generate violin plots."}, "[2]": {"tested_on": "protein levels in R6 Δtcs01 strain", "assay": "Quantitative proteomics (TMT labeling, LC-MS/MS)", "procedure": "(§1) In experiments 1 and 2, we analyzed the R6 WT and R6 Δtcs01 strains treated or not with 1 μg/mL of bacitracin. In experiment 3, we analyzed the R800-Δhk01-PcomX-rr01-hk01 strain treated with either 1 μg/mL or 32 μg/mL of bacitracin.\n(§2) Strains were grown in 50 mL of THY medium at 37°C without agitation and in anaerobic conditions until the absorbance reaches approximatively 0.3. After the addition of bacitracin (final concentrations of 1 or 32 μg/mL), the bacterial cultures were incubated for 45 min at 37°C with a slight mechanical agitation (60 rpm). Then, the cell density was adjusted to an OD600nm = 0.8 in 10 mL. After centrifugation at 4,000 x g for 10 min at 4°C, the pellets were resuspended with 1 mL of cold Tris-HCl 50 mM pH 7.5 and centrifuged at 10,000 x g, for 5 min at 4°C. The pellets were harvested and treated in the same conditions than previously. The contents were transferred into Eppendorf low-binding tubes. After a last centrifugation at 10,000 x g for 5 min at 4°C, the bacterial pellets were stored at -80°C. […] The proteins were quantified by using BCA assay kit (Thermo Scientific) before sending the samples to mass spectrometry analysis.\n(§3) To compare the proteins abundance between the different conditions/samples, we used a multiplexed quantitation method after labeling by isobaric Tandem Mass Tags (TMT). […]\n(§4) We simultaneously compared 6 TMT samples within the same experiment. In the experiment 1 we analyzed one sixplex containing R6 WT, R6 WT+ Bacitracin 1, R6 WT+ Bacitracin 2, R6 ΔTCS, R6 ΔTCS+ Bacitracin 1, R6 ΔTCS+ Bacitracin 2 labeled with reporter ions 126, 127, 128, 129, 130 and 131, respectively; and experiment 2 is a second sixplex containing R6 WT1, R6 WT2, R6 WT+ Bacitracin, R6 ΔTCS1, R6 ΔTCS2, R6 ΔTCS+ Bacitracin labeled with reporter ions 126, 127, 128, 129, 130 and 131, respectively. The calculated ratios shown in Figs 5 and S5 are: experiment 1: R6 WT+ Bacitracin (1/2)/R6WT and R6 WT+ Bacitracin (1/2)/ R6 ΔTCS+ Bacitracin (1/2); experiment 2: R6 WT+ Bacitracin /R6WT (1/2) and R6 WT+ Bacitracin/ R6 ΔTCS+ Bacitracin. […]"}, "[3]": {"tested_on": "BceAB protein levels in R6 WT strain", "assay": "Quantitative proteomics (TMT labeling, LC-MS/MS)", "settings": "R6 wild-type, bacitracin 1 μg/ml for 45 min versus untreated", "procedure": "as §1, §2, §3, §4"}}, "note": "Where a SMILES comes first, the peptide text is derived from it. Bridges are numbered along the chain shown (N, C = ends). [ ]: non-standard residue; d: D form. The star is where a group is joined. Ileψ(thiazoline)Cys = CC[C@H](C)[C@H](N)C1=N[C@H](C(=O)*)CS1; dOrn = NCCC[C@@H](N)C(=O)O"}
{"smiles": "CC[C@H](C)[C@H](N)C1=N[C@H](C(=O)N[C@@H](CC(C)C)C(=O)N[C@H](CCC(=O)O)C(=O)N[C@H](C(=O)N[C@H]2CCCCNC(=O)[C@H](CC(N)=O)NC(=O)[C@@H](CC(=O)O)NC(=O)[C@H](Cc3cnc[nH]3)NC(=O)[C@@H](Cc3ccccc3)NC(=O)[C@H]([C@@H](C)CC)NC(=O)[C@@H](CCCN)NC2=O)[C@@H](C)CC)CS1", "note": "[bacitracin] ({Ileψ(thiazoline)Cys}-L[dE]IK[dOrn]I[dF]H[dD]N; lactam 4-C (inferred); N-terminus assumed)", "values": [{"measurement": "Expression of BceA-GFP", "setting": "[1]", "value": "strongly activated"}, {"measurement": "BceAB protein levels upon treatment", "setting": "[2]; R6 Δtcs01, bacitracin 1 μg/ml for 45 min versus untreated, average", "value": "0.99 ± 0.09", "unit": "fold"}, {"measurement": "Abundance of LiaS upon treatment", "setting": "[2]; R6 Δtcs01 treated with bacitracin, TMT proteomics", "value": "increased by two-fold"}, {"measurement": "Accumulation of BceAB upon treatment", "setting": "[3]", "value": "7 ± 3", "unit": "fold"}]}
